Data on 1 compound can be found in patent US20200352889A1, “CYSTATHIONINE COMPOSITIONS AND METHODS OF TREATMENT FOR HEALTH CONDITIONS” (THE REGENTS OF THE UNIVERSITY OF COLORADO, A BODY CORPORATE, priority 2011, published 2020).

The test system of one assay is HepG2 cells. Nature of the assay: Tunicamycin-induced cell death, LDH release, HepG2 cells. Particulars: data not shown. The class given is cell-based, human. The procedure: Cells were seeded in triplicate at ˜75% confluence and pre-treated with either PPG) (5 mM), Cystathionine (1 mM) or with just complete media (DMEM, 10% FBS) as a control. After 24 hr pre-treatment, cells looked normal, with minimal floating cells. Fresh media with 1% FBS was then added to each well, the cells were further treated with Tm (either 5 or 10 ug)/ml. After 18 hr. treatment with Tunicamycin, cells were photographed under phase-contrast with a Zeiss Axiovert 25 microscope for evidence of dead floating cells. Cells from the group treated solely with tunicamycin became strikingly hyper-refringent, detached from the substratum and floated in the media. […] To further evaluate a role for cystathionine in resisting the induction of cell death by tunicamycin, cell lysis was quantified by assaying lactate dehydrogenase (LDH) release. The enzyme activity was determined spectrophotometrically and the amount of enzyme leak was expressed as a percentage of the LDH activity observed in untreated control cells. […]
Cells were seeded in triplicate at ˜75% confluence and pre-treated with either PPG) (5 mM), Cystathionine (1 mM) or with just complete media (DMEM, 10% FBS) as a control. […] To further evaluate a role for cystathionine in resisting the induction of cell death by tunicamycin, cell lysis was quantified by assaying lactate dehydrogenase (LDH) release. […]

Assay [1] concerns KDEL containing chaperones and GADD153. Nature of the assay: Immunohistochemical analysis of unfolded protein response in liver and kidney. The format is in vivo, mouse. On the procedure:
While it is not necessary to understand the mechanism of action, it is believed cystathionine may protect against ER stress induced cell injury by increasing the induction of molecular chaperones like Grp78 or by inhibiting the induction of GADD153. In order to investigate the mechanism by which cystathionine is protecting against ER stress induced tissue injury, an immunohistochemical analysis of liver and kidney tissues samples from the experimental groups described above was performed. […] Strong induction of KDEL containing proteins and GADD153 by tunicamycin treatment in both liver and kidneys of the tunicamycin groups was observed (FIG. 8, Panel B).
Prolonged perturbation of the ER is a powerful inducer of the C/EBP family member GADD153 (also known as CHOP) that plays a key role in the induction of programmed cell death by ER stress (10). Previous work has shown that GRP78 over-expression in Chinese hamster ovary cells attenuates both the ER stress-signal and the cell death that is observed in response to calcium ionophores (22) and blocking the expression of GRP78 by means of antisense constructs increase the lethality of agents that promote ER stress (23). Within this context, it is conceivable that cystathionine could protect against ER stress induced cell injury by increasing the induction of molecular chaperones like Grp78 or by inhibiting the induction of GADD153. […]

The test system of another assay is hepatic CGL. The conditions noted are these: I.P. injection; cited from earlier work.

For `C#CCC(N)C(=O)O` (racemic) [PPG, D,L-2-amino-4-pentynoic acid], in the assay on HepG2 cells, the “protection against tunicamycin-induced cell death compared with 293AD cells” value is given as “Essentially identical results”. Moreover, the “expression of KDEL signature proteins” value in assay [1] (PPG treatment alone) is “did not induce expression”. Further, the “level of induction of KDEL containing chaperones and GADD153 by tunicamycin” value in assay [1] (tunicamycin + PPG, liver and kidney) was “did not appear to affect the level of induction”. For the same compound, in the assay with hepatic CGL, the “duration of cystathionine accumulation” value was “approximately one day”, the “inactivation of hepatic CGL activity” value is listed as “rapidly inactivate” and the “time to accumulation of cystathionine” value is listed as “within one hour”.
